Laboratory results as given in US9266871B2, “Trifluoromethyl-substituted fused pyrimidines and their use” (BAYER PHARMA AKTIENGESELLSCHAFT, priority 2013, dated 2016).

Tested on: spontaneously hypertensive rats (SHR Okamoto)
Assay: Radiotelemetric measurement of blood pressure on conscious spontaneously hypertensive rats
Assay type: in vivo, rat
Source text: B-3. Radiotelemetric Measurement of Blood Pressure on Conscious Spontaneously Hypertensive Rats
A commercially available telemetry system from DATA SCIENCES INTERNATIONAL DSI, USA, is employed for the blood pressure measurement on conscious rats described below.
The system consists of 3 main components: • implantable transmitters (Physiotel® telemetry transmitter) • receivers (Physiotel® receiver) which are linked via a multiplexer (DSI Data Exchange Matrix) to a • data acquisition computer.
The telemetry system makes it possible to continuously record blood pressure, heart rate and body motion of conscious animals in their usual habitat.
The investigations are carried out on adult female spontaneously hypertensive rats (SHR Okamoto) with a body weight of >200 g. SHR/NCrl from the Okamoto Kyoto School of Medicine, 1963 were a cross of male Wistar Kyoto rats with highly elevated blood pressure and female rats having a slightly elevated blood pressure and at F13 handed over to the U.S. National Institutes of Health.
Unless indicated otherwise, the substances to be investigated are administered orally by gavage in each case to a group of animals (n=6). The test substances are dissolved in suitable solvent mixtures, or suspended in 0.5% strength Tylose, appropriate for an administration volume of 2 ml/kg of body weight.
In the standard procedure, the following are measured for 10-second periods in each case: • systolic blood pressure (SBP) • diastolic blood pressure (DBP) • mean arterial pressure (MAP) • heart rate (HR) • activity (ACT).
The acquisition of measurements is repeated under computer control at 5-minute intervals. The source data obtained as absolute value are corrected in the diagram with the currently measured barometric pressure (Ambient Pressure Reference Monitor; APR-1) and stored as individual data. Further technical details are given in the extensive documentation from the manufacturing company (DSI).
Unless indicated otherwise, the test substances are administered at 9.00 am on the day of the experiment. Following the administration, the parameters described above are measured over 24 hours.
After the end of the experiment, the acquired individual data are sorted using the analysis software (DATAQUEST™ A.R.T.™ ANALYSIS). The blank value is assumed to be the time 2 hours before administration, and so the selected data set encompasses the period from 7.00 am on the day of the experiment to 9.00 am the following day.
The data are smoothed over a presettable time by determination of the average (30-minute average) and transferred as a text file to a storage medium. The measured values presorted and compressed in this way are transferred into Excel templates and tabulated. For each day of the experiment, the data obtained are stored in a dedicated file bearing the number of the experiment. Results and test protocols are filed sorted by numbers.

C[C@@]1(C(F)(F)F)C(=O)Nc2nc(-c3nn(Cc4ncccc4F)c4ncc(F)cc34)nc(NCCC(F)(F)F)c21 (single isomer, unassigned) [Example 1-1]
mean blood pressure (0.03 mg/kg, 0 hours after substance administration): 148.8 mmHg | mean blood pressure (0.03 mg/kg, 1 hours after substance administration): 133.5 mmHg | mean blood pressure (0.03 mg/kg, 2 hours after substance administration): 127.3 mmHg | mean blood pressure (0.03 mg/kg, 3 hours after substance administration): 128.8 mmHg | mean blood pressure (0.03 mg/kg, 4 hours after substance administration): 132.3 mmHg | mean blood pressure (0.03 mg/kg, 5 hours after substance administration): 126.0 mmHg | mean blood pressure (0.03 mg/kg, 6 hours after substance administration): 124.5 mmHg | mean blood pressure (0.03 mg/kg, 7 hours after substance administration): 138.8 mmHg | mean blood pressure (0.03 mg/kg, 8 hours after substance administration): 143.8 mmHg | mean blood pressure (0.03 mg/kg, 9 hours after substance administration): 136.5 mmHg | mean blood pressure (0.03 mg/kg, 10 hours after substance administration): 143.8 mmHg | mean blood pressure (0.03 mg/kg, 11 hours after substance administration): 141.7 mmHg | mean blood pressure (0.03 mg/kg, 12 hours after substance administration): 141.7 mmHg | mean blood pressure (0.03 mg/kg, 13 hours after substance administration): 150.5 mmHg | mean blood pressure (0.03 mg/kg, 14 hours after substance administration): 150.8 mmHg | mean blood pressure (0.03 mg/kg, 15 hours after substance administration): 153.8 mmHg | mean blood pressure (0.03 mg/kg, 16 hours after substance administration): 145.7 mmHg | mean blood pressure (0.03 mg/kg, 17 hours after substance administration): 155.3 mmHg | mean blood pressure (0.03 mg/kg, 18 hours after substance administration): 151.2 mmHg | mean blood pressure (0.03 mg/kg, 19 hours after substance administration): 146.3 mmHg | mean blood pressure (0.03 mg/kg, 20 hours after substance administration): 140.2 mmHg | mean blood pressure (0.03 mg/kg, 21 hours after substance administration): 142.2 mmHg | mean blood pressure (0.03 mg/kg, 22 hours after substance administration): 142.8 mmHg | mean blood pressure (0.03 mg/kg, 23 hours after substance administration): 143.0 mmHg | mean blood pressure (0.03 mg/kg, 24 hours after substance administration): 143.2 mmHg | mean blood pressure (0.3 mg/kg p.o., 0 hours after substance administration): 138.7 mmHg | mean blood pressure (0.3 mg/kg p.o., 1 hours after substance administration): 116.3 mmHg | mean blood pressure (0.3 mg/kg p.o., 2 hours after substance administration): 106.8 mmHg | mean blood pressure (0.3 mg/kg p.o., 3 hours after substance administration): 107.2 mmHg | mean blood pressure (0.3 mg/kg p.o., 4 hours after substance administration): 105.5 mmHg | mean blood pressure (0.3 mg/kg p.o., 5 hours after substance administration): 106.2 mmHg | mean blood pressure (0.3 mg/kg p.o., 6 hours after substance administration): 106.8 mmHg | mean blood pressure (0.3 mg/kg p.o., 7 hours after substance administration): 101.7 mmHg | mean blood pressure (0.3 mg/kg p.o., 8 hours after substance administration): 111.3 mmHg | mean blood pressure (0.3 mg/kg p.o., 9 hours after substance administration): 109.0 mmHg | mean blood pressure (0.3 mg/kg p.o., 10 hours after substance administration): 113.3 mmHg | mean blood pressure (0.3 mg/kg p.o., 11 hours after substance administration): 114.8 mmHg | mean blood pressure (0.3 mg/kg p.o., 12 hours after substance administration): 112.0 mmHg | mean blood pressure (0.3 mg/kg p.o., 13 hours after substance administration): 117.2 mmHg | mean blood pressure (0.3 mg/kg p.o., 14 hours after substance administration): 115.7 mmHg | mean blood pressure (0.3 mg/kg p.o., 15 hours after substance administration): 117.8 mmHg | mean blood pressure (0.3 mg/kg p.o., 16 hours after substance administration): 111.5 mmHg | mean blood pressure (0.3 mg/kg p.o., 17 hours after substance administration): 121.7 mmHg | mean blood pressure (0.3 mg/kg p.o., 18 hours after substance administration): 132.3 mmHg | mean blood pressure (0.3 mg/kg p.o., 19 hours after substance administration): 117.0 mmHg | mean blood pressure (0.3 mg/kg p.o., 20 hours after substance administration): 110.7 mmHg | mean blood pressure (0.3 mg/kg p.o., 21 hours after substance administration): 124.0 mmHg | mean blood pressure (0.3 mg/kg p.o., 22 hours after substance administration): 125.5 mmHg | mean blood pressure (0.3 mg/kg p.o., 23 hours after substance administration): 139.0 mmHg | mean blood pressure (0.3 mg/kg p.o., 24 hours after substance administration): 150.5 mmHg
